Data published in US7253144B2, “Method for producing by cell-free protein synthesis system using thioredoxin-fused protein expression vector” (Riken, priority 2002, dated 2007).

How the values were obtained:
[1] = target: T1, human β2AR expressed in an insect cell (Sf9 cell) (Homo sapiens, UniProt P07550); test: Ligand binding saturation experiment with [3H]DHA, positive control receptor; conditions: n=1, read-out: binding constant (Kd value)
T1 construct: expressed in transfected cells; host or cells: Sf9 insect cells
T1 sequence (P07550 whole entry): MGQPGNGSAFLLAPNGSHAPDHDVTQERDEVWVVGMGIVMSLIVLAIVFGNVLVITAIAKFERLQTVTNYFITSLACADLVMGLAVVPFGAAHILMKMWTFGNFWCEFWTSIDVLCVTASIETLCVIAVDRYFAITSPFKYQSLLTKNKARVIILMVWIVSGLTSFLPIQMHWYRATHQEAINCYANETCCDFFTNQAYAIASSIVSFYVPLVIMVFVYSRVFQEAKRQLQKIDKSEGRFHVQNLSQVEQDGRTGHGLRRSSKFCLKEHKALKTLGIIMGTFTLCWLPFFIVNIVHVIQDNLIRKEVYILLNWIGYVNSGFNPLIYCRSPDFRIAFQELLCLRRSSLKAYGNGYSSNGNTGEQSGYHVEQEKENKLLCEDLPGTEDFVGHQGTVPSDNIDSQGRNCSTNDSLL

[2] = target: thioredoxin-fused β2AR-Gs and liposome complex; test: Ligand binding saturation experiment with [3H]DHA on reconstituted membrane fraction; parameters: species or system human; conditions: average of three independent experiments; 0 to 25 nM [3H]DHA, 25° C., 60 minutes; read-out: binding constant (Kd value), average
Procedure: Subsequently, PBS was added to dilute the detergent, and 10% β-dodecylmaltoside (Nacalaitesque) was added dropwise to make the final concentration 1%. […] A complex of the reconstituted thioredoxin-fused β2AR-Gs after completion of the dialysis and the liposome was centrifuged for 1 hours at 100,000×g and 4° C., and the resultant precipitation fraction (reconstituted membrane fraction) was suspended in 50 μl of an incubation buffer (75 mM Tris-HCl (pH7.4), 12.5 mM MgCl2, 2 mM EDTA).
The ligand binding saturation experiment was conducted by incubating this reconstituted membrane fraction (complex of thioredoxin-fused β2AR-Gs and liposome) together with 0 to 25 nM tritium-labeled Dihidroalprenolol ([^3H]DHA) in 200 μl as a final volume of the incubation buffer at 25° C. for 60 minutes. A competition experiment was conducted by incubating the reconstituted membrane fraction described above together with 10 nM [^3H]DHA in the presence or absence of 10^−8 to 10^−2 MAlprenolol (Sigma).

Kd [1]: 3.9 nM | Kd [2]: 5.5 ± 1.1 nM
Structure (SMILES): CCCc1ccccc1OCC(O)CNC(C)C (centres unmarked) [[^3H]DHA, Dihidroalprenolol]
